Assay results taken from paper PMC5371824, “Phosphatidylinositol (4,5)-bisphosphate dynamically regulates the K2P background K^+ channel TASK-2” (Scientific Reports, 2017).
“Also recorded” adds a separate entry of the source. Where two headings read alike, the source gives them in different places. Each block holds one compound with its values, some of them ahead of it.

Experiments:
TASK-2 [1] = molecular target: T1, TASK-2 (Mus musculus, UniProt F6V9U5); test: Excised inside-out patch recording from HEK-293 cells over-expressing TASK-2; format: biochemical; conditions: for Inhibition of TASK-2 activity by polycation PI scavengers: in the presence of intracellular ATP; for IC50: WT TASK-2, inside-out patch, mean ± SEM, read-out: IC50 for neomycin inhibition of TASK-2 current; for Stimulating effect on TASK-2-mediated currents after run-down: diC8 PIP added to inside-out excised patches; for Maximal fold effect on TASK-2 current (normalised to current in absence of PIP) / EC50: from fits, means ± SEM; for EC50: read-out: K0.5 (EC50) for activation of TASK-2 current
T1 construct: expressed in transfected cells; host or cells: HEK-293
T1 sequence (F6V9U5 1-502): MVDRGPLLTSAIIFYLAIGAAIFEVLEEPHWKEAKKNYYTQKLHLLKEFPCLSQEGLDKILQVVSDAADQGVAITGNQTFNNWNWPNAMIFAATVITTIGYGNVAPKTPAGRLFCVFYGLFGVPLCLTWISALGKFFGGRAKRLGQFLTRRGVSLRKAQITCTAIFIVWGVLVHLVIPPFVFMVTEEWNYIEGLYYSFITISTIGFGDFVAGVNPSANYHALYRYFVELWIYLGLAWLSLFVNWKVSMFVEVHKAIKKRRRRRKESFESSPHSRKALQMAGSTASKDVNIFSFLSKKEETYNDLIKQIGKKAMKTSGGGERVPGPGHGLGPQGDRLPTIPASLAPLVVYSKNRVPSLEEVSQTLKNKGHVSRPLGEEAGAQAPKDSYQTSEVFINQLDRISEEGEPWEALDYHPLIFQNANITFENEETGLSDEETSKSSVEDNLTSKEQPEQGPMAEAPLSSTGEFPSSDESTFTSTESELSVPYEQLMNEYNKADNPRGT

TASK-2 [2] = molecular target: T1, TASK-2; test: Whole-cell patch-clamp of HEK-293 cells expressing TASK-2; format: cell-based; conditions: whole-cell, 0 mV; for Inhibition of TASK-2 activity by intracellular neomycin: 1 mM intracellular ATP
Method: (§1) Mus musculus TASK-2 (GenBank accession No. AF319542) plasmid was that obtained from mouse kidney. The cDNAs was subcloned into the pCR3.1 vector. Mutations were made by site-directed mutagenesis into the pCR3.1 vector as previously described[69] and confirmed by sequencing. HEK-293 cells were cultured in Dulbecco’s modified Eagle’s medium (DMEM) and F12 Ham’s medium at a 1:1 ratio and supplemented with 10% fetal calf serum at 37 °C in 5% CO2. For electrophysiological experiments, transient transfections were performed by electroporation, using CD8 cotransfection to identify effectively transfected cells. […] Experiments were performed 4–8 h after electroporation. In experiments with the voltage-sensitive phosphatase TASK-2 or its mutants were co-electroporated with a pCR3.1-DrVSP-IRES-CD8 vector.
Transiently transfected HEK-293 cells in 35 mm Petri dishes were transferred to the stage of an inverted microscope for study. There they were continuously superfused with a bathing solution containing (in mM): 67.5 Na2SO4, 4 KCl, 1 K gluconate, 2 CaCl2, 1 MgCl2, 105 sucrose, and 10 Hepes/Tris (pH 7.5) (standard solution). A high K^+ solution was obtained by equimolar replacement of Na^+ by K^+. The pipette solution contained (mM) 8 KCl, 132 potassium gluconate, 1 MgCl2, 10 EGTA, 1 Na3ATP, 0.1 GTP, 10 HEPES/Tris, pH 7.4. Standard whole-cell, patch-clamp recordings were performed as described elsewhere. All our whole-cell experiments keep both intra- and extracellular chloride at 10 mM and although currents were measured at several potentials, data mostly reported are those obtained at 0 mV. Potentials were corrected for liquid junction shifts. Acquisition and analysis was done with Clampfit 9.0 (Axon Instruments, Foster City, CA, USA). Further data analysis was done using the curve fitting features of SigmaPlot v. 12 (Systat Software Inc., San Jose, CA, USA).

TASK-2-R438C = test: Excised inside-out patch recording, TASK-2-R438C mutant; format: biochemical, Mus musculus; design: key to Neomycin inhibition: ✓ under Neomycin inhibition indicates a significantly lower IC50 for inhibition by neomycin compared to control; — in all cases stands for no significant effect
Method: as §1
Recordings in the inside-out isolated patch configuration were performed in the gap-free mode at −60 mV. The inside aspect of the patch was bathed with a solution containing in mM: 10 KCl, 10 Glucose, 1 MgCl2, 10 EGTA, 1 Na3ATP, 0.1 GTP, 6.8 g/100 ml Sucrose, 10 Hepes/Tris, pH 7.4. The pipette contained in mM: 140 KCl, 10 Glucose, 6.8 g/100 ml Sucrose, 10 Hepes/Tris pH 7.4. For isolated patches, borosilicate capillaries (Harvard Apparatus GC150F-10 1.5 ODx0.86 ID) were fire polished to 4–5 MΩ and covered in beeswax. Acquisition was at 10 kHz with filter at 3 kHz (4-pole Bessel) and analysis was done with Clampfit 9.0 (Axon Instruments, Foster City, CA, USA). Traces shown are prints from crude Clampfit screen shots and quantification was done using the average currents were calculated at intervals using Clampfit after baseline adjustment.
Fig. S7. Concentration ependence for the inhibition of TASK-2 mutant R438C by
intracellular neomycin. Recording were obtained from excised inside-out patches of
membrane taken from a HEK-293 cells over-expressing TASK-2-R438C. The patches were
held at -60 mV in the presence of 1 mM intracellular ATP. Neomycin was increased
stepwise from 5 to 500 µM in the solution bathing the intracellular aspect of the membrane. […]

Kir4.1/Kir5.1 = tested on: Kir4.1/Kir5.1; design: method as in PMID 18690035; conditions: read-out: neomycin IC50; cited from earlier work
[3] = diC8 PIP, inside-out patch, -60 mV, absence of ATP

Compound: poly-lysine
- Inhibition of TASK-2 activity by polycation PI scavengers (TASK-2 [1]): inhibit TASK-2 activity

Compound: CCCCCCCC(=O)OC[C@H](COP(=O)(O)O[C@H]1[C@H](O)[C@@H](O)[C@H](OP(=O)(O)O)[C@@H](OP(=O)(O)O)[C@H]1O)OC(=O)CCCCCCC [PI(3,4)P2, phosphatidylinositol 3,4-bisphosphate diC8]
- Effect of readmitted ATP relative to the maximal effect elicited by the PIP (TASK-2 [1]; 1 mM ATP added after PIP, inside-out patches, Fig. S3): 1.4 fold
- Stimulating effect on TASK-2-mediated currents after run-down (TASK-2 [1]; absence of ATP): Robust, but intermediate effects
- Maximal fold effect on TASK-2 current (normalised to current in absence of PIP) (TASK-2 [1]; [3]): 4.3 ± 0.4 fold
- EC50 (TASK-2 [1]; [3]): 48.4 ± 4.6 µM
- Hill coefficient nH of dose response curve (TASK-2 [1]; diC8 PIP, inside-out patch, absence of ATP): 2

Compound: Nc1ncnc2c1ncn2[C@@H]1O[C@H](CO[P@](=O)(O)O[P@](=O)(O)O[P@@](=O)(O)S)[C@@H](O)[C@H]1O [ATP-γ-S, adenosine-5′-(γ-thio)-triphosphate]
- Ability to support TASK-2-mediated current in place of ATP (TASK-2 [2]; pipette solution with non-hydrolysable analogue): unable to support the TASK-2-mediated current

Continued, in another order:

- Inhibition of TASK-2 activity by intracellular neomycin (TASK-2 [2]; 100 μM in pipette): intermediate effect
- Inhibition of TASK-2 activity by intracellular neomycin (TASK-2 [2]; 200 μM in pipette): near maximum effect
- Inhibition of TASK-2 activity in excised inside-out patches (TASK-2 [1]; 300 μM, -60 mV, 1 mM intracellular ATP): strongly inhibited
- IC50 (TASK-2 [1]; -60 mV, 1 mM intracellular ATP, neomycin 5 to 500 μM intracellular, n = 4): ~20 µM
- IC50 (TASK-2 [1]; graded intracellular neomycin, four experiments, unit inferred): 23.4 ± 2.7 µM
- Inhibition of TASK-2 activity by polycation PI scavengers (TASK-2 [1]): inhibit TASK-2 activity
Compound: neomycin
- IC50 (TASK-2-R438C; inside-out patch, -60 mV, 1 mM intracellular ATP, neomycin 5 to 500 µM, mean ± SEM, n=4, read-out: IC50 for neomycin inhibition of TASK-2-R438C current): 8.9 ± 1.5 µM
- Neomycin inhibition (TASK-2-R438C; mutation R438C, IC50 compared to WT TASK-2): ✓
- IC50 (Kir4.1/Kir5.1): 110 µM

- Maximal fold effect on TASK-2 current (normalised to current in absence of PIP) (TASK-2 [1]; [3]): 11.6 ± 1.6 fold
- EC50 (TASK-2 [1]; [3]): 29.8 ± 10.2 µM
Compound: CCCCCCCC(=O)OC[C@H](COP(=O)(O)O[C@H]1[C@H](O)[C@@H](OP(=O)(O)O)[C@H](OP(=O)(O)O)[C@@H](OP(=O)(O)O)[C@H]1O)OC(=O)CCCCCCC [PI(3,4,5)P3, phosphatidylinositol 3,4,5-trisphosphate diC8]
- Stimulating effect on TASK-2-mediated currents after run-down (TASK-2 [1]; absence of ATP): Largest effect; also recorded: most potent effect
